Square brackets hold non-standard residues; d marks the D form. Peptide text beside a SMILES is read from it. * marks the point of attachment. CPTA = 4-(1,4,8,11-tetraazacyclotetradec-1-yl)-methyl benzoic acid chelator, O=C(c1ccc(CN2CCCNCCNCCCNCC2)cc1)*; DOTA = O=C(O)CN1CCN(CC(=O)O)CCN(CC(=O)*)CCN(CC(=O)O)CC1; Nle = CCCC[C@H](N)C(=O)O; GABA = NCCCC(=O)O; βAla = NCCC(=O)O

For one series, the target named is T1, human GRP receptor (Homo sapiens, UniProt P30550).
T1 construct: in vitro autoradiography of sections of human prostate cancer tissue overexpressing GRP receptors; from tissue; host or cells: human prostate cancer tissue sections (patient samples, Institute of Pathology, University of Berne)
T1 sequence (P30550 whole entry): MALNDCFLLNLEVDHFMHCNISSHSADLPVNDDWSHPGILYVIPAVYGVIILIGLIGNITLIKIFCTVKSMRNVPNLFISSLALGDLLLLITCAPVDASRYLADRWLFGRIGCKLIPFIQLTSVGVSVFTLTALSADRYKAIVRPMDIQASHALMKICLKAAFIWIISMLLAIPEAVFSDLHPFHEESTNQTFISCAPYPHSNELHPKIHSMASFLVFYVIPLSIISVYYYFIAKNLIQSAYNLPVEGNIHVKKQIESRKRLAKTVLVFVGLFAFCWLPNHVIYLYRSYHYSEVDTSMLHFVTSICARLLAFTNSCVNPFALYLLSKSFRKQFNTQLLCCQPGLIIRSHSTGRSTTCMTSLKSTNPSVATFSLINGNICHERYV
In words: Competitive binding vs [^125I-Tyr^4] BN, autoradiography of human prostate cancer tissue sections. Conditions: displacement of [^125I-Tyr^4] BN, ± SD, number of independent studies in brackets. Here is the method:
(§1) Using [^125I-Tyr^4] BN as a GRP receptor preferring ligand, the IC50 values of the ^natCu/^natIn-labeled peptides were measured by in vitro autoradiography of sections of human prostate cancer tissue overexpressing GRP receptors or mouse pancreas tissue expressing mouse GRP receptors. The prostate cancer tissues originated from samples investigated previously or collected prospectively at the Institute of Pathology of the University of Berne in accordance with international ethical guidelines, including informed written consent and approval by the institutional review board. The binding affinity profile of [Cu^II]-BZH7 for three bombesin receptor subtypes was determined by using [^125I-D-Tyr^6, βAla^11, Phe^13, Nle^14] BN(6–14) as an universal radioligand. The procedures were described in detail previously.
(§2) Competitive binding assays were performed with human GRP receptor-positive cancerous tissue and mouse pancreas tissue (expressing mouse GRP receptor) using [^125I-Tyr^4]bombesin as radioligand. Table 2 summarizes the binding affinities of the metallopeptides to GRP receptors of mouse and human origin.

The target in another series is T2, mouse GRP receptor (Mus musculus, UniProt P21729).
T2 construct: mouse pancreas tissue (expressing mouse GRP receptor); from tissue; host or cells: mouse pancreas tissue sections
T2 sequence (P21729 whole entry): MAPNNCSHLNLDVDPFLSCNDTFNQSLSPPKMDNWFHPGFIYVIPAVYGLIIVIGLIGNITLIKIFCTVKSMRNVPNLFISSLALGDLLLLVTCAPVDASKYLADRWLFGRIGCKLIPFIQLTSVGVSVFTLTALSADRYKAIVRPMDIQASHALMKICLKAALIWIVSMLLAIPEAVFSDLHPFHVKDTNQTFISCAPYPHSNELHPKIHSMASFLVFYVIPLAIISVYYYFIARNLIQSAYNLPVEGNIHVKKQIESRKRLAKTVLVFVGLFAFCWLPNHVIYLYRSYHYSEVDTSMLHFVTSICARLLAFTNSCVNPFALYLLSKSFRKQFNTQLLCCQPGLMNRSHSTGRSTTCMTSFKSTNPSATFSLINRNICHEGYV
The series can be described thus: Competitive binding vs [^125I-Tyr^4] BN, autoradiography of mouse pancreas tissue sections. Conditions: displacement of [^125I-Tyr^4] BN, ± SD, number of independent studies in brackets. As for the experimental part:
as §1, §2

Series [1] concerns the target T3, BNRS-3 (Homo sapiens, UniProt P32247).
T3 construct: from tissue
T3 sequence (P32247 1-399): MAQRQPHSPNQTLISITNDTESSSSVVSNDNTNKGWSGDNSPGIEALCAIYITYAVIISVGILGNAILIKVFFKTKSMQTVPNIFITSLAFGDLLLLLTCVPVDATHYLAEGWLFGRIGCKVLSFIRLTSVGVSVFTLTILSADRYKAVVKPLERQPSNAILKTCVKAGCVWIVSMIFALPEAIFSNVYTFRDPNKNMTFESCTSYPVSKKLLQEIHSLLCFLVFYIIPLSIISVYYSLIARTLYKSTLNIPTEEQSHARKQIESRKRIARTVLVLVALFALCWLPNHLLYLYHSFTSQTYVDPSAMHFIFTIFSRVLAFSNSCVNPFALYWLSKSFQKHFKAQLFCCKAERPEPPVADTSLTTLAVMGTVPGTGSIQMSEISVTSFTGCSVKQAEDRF
In words: BN receptor subtype profile with universal radioligand [^125I-D-Tyr^6, βAla^11, Phe^13, Nle^14] BN(6–14), human cancerous tissues. As to conditions: human cancerous tissue, read-out: binding affinity to BNRS-3. Here is the method: as §1
(§3) The most promising peptide, Cu-BZH7, was also studied with respect to BN receptor subtype profiles using human cancerous tissues shown to express predominantly a single bombesin receptor subtype.

In series [2] the target is T4, NMB-R (Homo sapiens, UniProt P28336).
T4 construct: from tissue
T4 sequence (P28336 whole entry): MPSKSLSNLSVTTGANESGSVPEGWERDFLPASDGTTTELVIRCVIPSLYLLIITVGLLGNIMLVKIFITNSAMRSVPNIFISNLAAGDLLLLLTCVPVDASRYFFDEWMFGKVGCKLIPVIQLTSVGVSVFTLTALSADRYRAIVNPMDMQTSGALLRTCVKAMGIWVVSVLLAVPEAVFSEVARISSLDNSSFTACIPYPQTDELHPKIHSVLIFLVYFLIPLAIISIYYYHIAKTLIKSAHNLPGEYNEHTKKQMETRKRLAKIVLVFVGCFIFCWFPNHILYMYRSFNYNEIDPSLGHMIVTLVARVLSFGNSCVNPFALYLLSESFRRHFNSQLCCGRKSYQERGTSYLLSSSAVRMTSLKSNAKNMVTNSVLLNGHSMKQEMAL
The series is described as above. As to conditions: human cancerous tissue, read-out: binding affinity to NMB-R. Here is the method:
as §1, §3

In series [3] the target is T5, GRP-R (Homo sapiens, UniProt P30550).
T5 construct: from tissue
T5 sequence (P30550 whole entry): as the sequence (P30550 whole entry) above
The series is described as above. As to conditions: human cancerous tissue, read-out: binding affinity to GRP-R. Here is the method:
as §1, §3

For a further series, the system named is PC-3 cells. The series can be described thus: Composition of radioactivity externalized from PC-3 cells (metabolites). The class given is cell-based, human. Here is the method:
To identify the composition of the externalized peptides, [^111In]-BZH4 (^111In-DOTA-GABA-D-Tyr-Gln-Trp-Ala-Val-βAla-His-Leu-Nle-NH2) was used as a surrogate peptide with high specific activity, required for metabolic studies. Upon 2 h of internalization and acid wash, the externalized radioactivity after 2 h incubation already consisted of approximately 84% metabolites (^111In-DOTA: 14%; ^111In-DOTA-GABA-D-Tyr-Gln: main peak, 64%; ^111In-DOTA-GABA-D-Tyr-Gln-Trp-Ala-Val-βAla: 6%) and 16% intact peptide.

For series [4], the system named is NMB-R. Conditions: read-out: affinity to NMB-R; cited from earlier work.
The test system of series [5] is GRP-R. Conditions: read-out: affinity to GRP-R; cited from earlier work.
The test system of series [6] is BNRS-3. Conditions: read-out: affinity to BNRS-3; cited from earlier work.
Where [7] appears, read: 2 h internalization, acid wash, 2 h incubation.

Turning to `CCCC[C@H](NC(=O)[C@H](CC(C)C)NC(=O)[C@H](Cc1c[nH]cn1)NC(=O)CCNC(=O)[C@@H](NC(=O)[C@H](C)NC(=O)[C@H](Cc1c[nH]c2ccccc12)NC(=O)[C@H](CCC(N)=O)NC(=O)[C@@H](Cc1ccc(O)cc1)NC(=O)CCCNC(=O)CN1CCN(CC(=O)O)CCN(CC(=O)O)CCN(CC(=O)O)CC1)C(C)C)C(N)=O` [[Cu^II]-BZH4, Cu^II-DOTA-GABA-[D-Tyr^6, βAla^11, Nle^14] BN(6–14)] ({DOTA-GABA}-[dY]QWAV[βAla]HL[Nle]-NH2), the IC50 is 26.3 ± 3.5 nM on human GRP receptor and 1.1 ± 0.3 nM on mouse GRP receptor.

On to `CSCC[C@H](NC(=O)[C@H](CC(C)C)NC(=O)[C@H](Cc1c[nH]cn1)NC(=O)CCNC(=O)[C@@H](NC(=O)[C@H](C)NC(=O)[C@H](Cc1c[nH]c2ccccc12)NC(=O)[C@H](CCC(N)=O)NC(=O)c1ccc(CN2CCCNCCNCCCNCC2)cc1)C(C)C)C(N)=O` [[Cu^II]-BZH7, Cu^II-CPTA-[βAla^11] BN(7–14)], for which the values for the IC50 at BNRS-3 [1], on NMB-R [2] and at GRP-R [3] were 1.4 ± 0.6 nM, 0.27 ± 0.16 nM and 0.3 ± 0.07 nM, respectively.

For `CCCC[C@H](NC(=O)[C@H](CC(C)C)NC(=O)[C@H](Cc1c[nH]cn1)NC(=O)CCNC(=O)[C@@H](NC(=O)[C@H](C)NC(=O)[C@H](Cc1c[nH]c2ccccc12)NC(=O)[C@H](CCC(N)=O)NC(=O)[C@@H](Cc1ccc(O)cc1)NC(=O)CCCNC(=O)CN1CCN(CC(=O)O)CCN(CC(=O)O)CCN(CC(=O)O)CC1)C(C)C)C(N)=O` [[^111In]-BZH4, ^111In-DOTA-GABA-D-Tyr-Gln-Trp-Ala-Val-βAla-His-Leu-Nle-NH2, metal not drawn] ({DOTA-GABA}-[dY]QWAV[βAla]HL[Nle]-NH2), in the series with PC-3 cells, the “externalized radioactivity: ^111In-DOTA” value is reported as 14% and the “externalized radioactivity: metabolites (total)” value is recorded as “approximately 84%”. Moreover, in the series with PC-3 cells (setting [7]), the “externalized radioactivity: ^111In-DOTA-GABA-D-Tyr-Gln (main peak)” value is recorded as 64% and the “externalized radioactivity: ^111In-DOTA-GABA-D-Tyr-Gln-Trp-Ala-Val-βAla” value was determined as 6%.

Consider “Cu^II-CPTA -[D-Tyr^6, βAla^11, Nle^14] BN(6–14) [[Cu^II]-BZH5]”, for which the IC50 amounted to 3.2 ± 0.5 nM on human GRP receptor and 0.6 ± 0.2 nM on mouse GRP receptor.

For “Cu^II-CPTA-[D-Tyr^6, βAla^11] BN(6–14) ({CPTA}-[dY]QWAV[βAla]HLM-NH2; also: Cu(II) complex of CPTA) [[Cu^II]-BZH6]”, the IC50 in the series with human GRP receptor is 1 ± 0.2 nM; in the series with mouse GRP receptor it was 0.8 ± 0.2 nM.

For the compound “Cu^II-CPTA-[Gly^6, βAla^11] BN(6–14) [[Cu^II]-BZH8]”, the IC50 was determined as 1.8 ± 0.6 nM at human GRP receptor and 0.8 ± 0.2 nM on mouse GRP receptor.

With “DOTA-PEG4-BN(7–14) [[^natGa/^natLu]-DOTA-PESIN]”, the values for the IC50 in the series on NMB-R [4], with GRP-R [5] and with BNRS-3 [6] were 12.5 nM, 10 nM and > 1000 nM, respectively.

On to “In^III-DOTA-GABA-[D-Tyr^6, βAla^11, Nle^14] BN(6–14) [[In^III]-BZH4]”, for which the IC50 at human GRP receptor came to 41.5 ± 2.5 nM; on mouse GRP receptor, 0.8 ± 0.4 nM.

Regarding [(N4-Bzdig)^0] BN (7–14), the values for the IC50 in the series with NMB-R [4], with GRP-R [5] and with BNRS-3 [6] were 0.65 nM, 0.9 nM and 37 nM, respectively.

These data come from publication PMC3443097, “Evolution of Bombesin Conjugates for Targeted PET Imaging of Tumors” (PLoS ONE, 2012).
